Nine molecules from patent publication US9216973B2, “Insecticidal compounds” (Syngenta Participations AG, priority 2008, dated 2015) can be followed below.

Assay type in all cases: in vivo
Experiment [1] has as its system Plutella xylostella (Diamond back moth). Put plainly: Plutella xylostella larvae test on artificial diet. As to conditions: for pest or weed control at 200 ppm: 144 h, 200 ppm (concentration in well 18 ppm), artificial diet, L2 larvae, larval mortality and growth regulation after 6 days. The gist of the method: (§1)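 Diabrotica balteata L2 larvae (6-10/well) and Plutella xylostella L2 larvae (7-12/well) were placed on diet treated at 200 ppm (18 ppm in well), scored after 5 and 6 days for larval mortality and growth regulation. Heliothis virescens eggs (0-24 h) on treated diet, scored after 4 days for egg/larval mortality and growth regulation; Thrips tabaci on sprayed (200 ppm) sunflower leaf discs, mortality checked after 7 days.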

Experiment [2] deals with Diabrotica balteata (Corn root worm). Put plainly: Diabrotica balteata larvae test on artificial diet. Conditions: for pest or weed control at 200 ppm: 120 h, 200 ppm (concentration in well 18 ppm), artificial diet, L2 larvae, larval mortality and growth regulation after 5 days. The gist of the method:
as §1

Experiment [3] relates to Thrips tabaci (Onion thrips). The experiment can be described thus: Thrips tabaci sunflower leaf disc spray test. As to conditions: for pest or weed control at 200 ppm: foliar, 168 h, 200 ppm spray on sunflower leaf discs, population of mixed ages, mortality after 7 days. An outline of the steps: as §1
Experiment [4] has as its system Heliothis virescens (Tobacco budworm). The experiment can be described thus: Heliothis virescens egg test on artificial diet. As to conditions: for pest or weed control at 200 ppm: 96 h, 200 ppm (concentration in well 18 ppm), eggs 0-24 h old on artificial diet, egg mortality, larval mortality, growth regulation after 4 days, read-out: control of Heliothis virescens. The gist of the method:
as §1

Experiment [5] relates to Tetranychus urticae (Two-spotted spider mite). The experiment can be described thus: Tetranychus urticae bean leaf disc spray test. Conditions: for pest or weed control at 200 ppm: foliar, 192 h, 200 ppm spray on bean leaf discs, mite populations of mixed ages, egg, larval and adult mortality 8 days later, read-out: control of Tetranychus urticae. The gist of the method: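 Leaf discs cut from bean plants were laid on agar in 24-well microtiter plates and sprayed with the test solutions at 200 ppm. Once dry, each disc was infested with a mixed-age population of two-spotted spider mites. Eight days later the discs were assessed for egg, larval and adult mortality.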

A value given as a limit tells only on which side of the number the result lay.

With `CC1(NC(=O)c2ccc(C3=NOC(c4cc(Cl)cc(Cl)c4)(C(F)(F)F)C3)c3ccccc23)CSC1` (stereo not drawn) [A1], the pest or weed control at 200 ppm in experiment [1], in experiment [2], in experiment [3], in experiment [4] and in experiment [5] was ≥ 80% in each case.

With `Cc1cc(C2=NN(C)C(c3cc(Cl)cc(Cl)c3)(C(F)(F)F)C2)ccc1C(=O)NC1CSC1` (stereo not drawn) [A14], the pest or weed control at 200 ppm in experiment [1], in experiment [2], in experiment [3], in experiment [4] and in experiment [5] was ≥ 80% each time.

As to `Cc1cc(C2=NN(C)C(c3cc(Cl)cc(Cl)c3)(C(F)(F)F)C2)ccc1C(=O)NC1(C)CSC1` (stereo not drawn) [A12], the pest or weed control at 200 ppm in experiment [1], in experiment [2], in experiment [3], in experiment [4] and in experiment [5] was ≥ 80% throughout.

As to `Cc1cc(C2=NN(C)C(c3cc(Cl)cc(Cl)c3)(C(F)(F)F)C2)ccc1C(=O)NC1C[S+]([O-])C1` (stereo not drawn) [A13], the pest or weed control at 200 ppm in experiment [1], in experiment [2], in experiment [3], in experiment [4] and in experiment [5] was ≥ 80% each time.

As to `O=C(NC1C[S+]([O-])C1)c1ccc(C2=NOC(c3cc(Cl)cc(Cl)c3)(C(F)(F)F)C2)c2ccccc12` (stereo not drawn) [A16], the pest or weed control at 200 ppm in experiment [1], in experiment [2], in experiment [3], in experiment [4] and in experiment [5] was ≥ 80% each time.

On to `Cc1cc(C2CC(c3cc(Cl)cc(Cl)c3)(C(F)(F)F)ON2C)ccc1C(=O)NC1CS(=O)(=O)C1` (stereo not drawn) [A19], for which the pest or weed control at 200 ppm in experiment [1], in experiment [2], in experiment [3], in experiment [4] and in experiment [5] was ≥ 80% throughout.

For the molecule `Cc1cc(C2=NOC(c3cc(Cl)cc(Cl)c3)(C(F)(F)F)C2F)ccc1C(=O)NC1CSC1` (stereo not drawn) [A61], the pest or weed control at 200 ppm in experiment [1], in experiment [2], in experiment [3], in experiment [4] and in experiment [5] was ≥ 80% in each case.

Turning to `Cc1cc(C2=NOC(c3cc(Cl)cc(Cl)c3)(C(F)(F)F)C2F)ccc1C(=O)NC1CS(=O)(=O)C1` (stereo not drawn) [A59], the pest or weed control at 200 ppm in experiment [1], in experiment [2], in experiment [3], in experiment [4] and in experiment [5] was ≥ 80% throughout.

As to `Cc1nc2c(C3=NOC(c4cc(Cl)cc(Cl)c4)(C(F)(F)F)C3)ccc(C(=O)NC3CS(=O)(=O)C3)c2o1` (stereo not drawn) [A26], the “effect on mortality, feeding behavior, or growth regulation” value in experiment [1] (same protocol, 200 ppm) is “little or no effect”; in experiment [2] (same protocol, 200 ppm), “little or no effect”; in experiment [3] (same protocol, 200 ppm), “little or no effect”; in experiment [4] (same protocol, 200 ppm), “little or no effect”; in experiment [5] (same protocol, 200 ppm), “little or no effect”.
